“And” between values parts separate entries of the source, which are not always exact repeats. Identical values can stand only once. “Also recorded” adds a separate entry of the source. Like-named read-outs stand apart in the source and are kept apart here.
Assays:
[1] = biological target: T1, OAT1 (Homo sapiens, UniProt Q4U2R8); test: Uptake transporter inhibition assay, OAT1 (tenofovir)
T1 sequence (Q4U2R8 1-563): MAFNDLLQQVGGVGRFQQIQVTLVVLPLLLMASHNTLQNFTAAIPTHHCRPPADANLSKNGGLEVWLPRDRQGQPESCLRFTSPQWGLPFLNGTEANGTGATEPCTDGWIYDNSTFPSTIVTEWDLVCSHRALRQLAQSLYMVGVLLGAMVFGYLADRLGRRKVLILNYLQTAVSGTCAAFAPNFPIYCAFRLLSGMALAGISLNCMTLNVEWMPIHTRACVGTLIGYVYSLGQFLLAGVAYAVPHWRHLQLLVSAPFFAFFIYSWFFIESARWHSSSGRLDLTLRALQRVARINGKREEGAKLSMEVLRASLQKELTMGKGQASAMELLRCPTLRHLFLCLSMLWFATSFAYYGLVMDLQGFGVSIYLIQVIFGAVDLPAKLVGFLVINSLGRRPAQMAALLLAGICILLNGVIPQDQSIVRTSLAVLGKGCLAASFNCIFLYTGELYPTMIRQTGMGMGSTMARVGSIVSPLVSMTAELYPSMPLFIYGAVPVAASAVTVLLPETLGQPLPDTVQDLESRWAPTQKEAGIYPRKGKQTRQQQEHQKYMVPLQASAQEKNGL
Description: Uptake experiments were performed using HEK293 cells stably expressing the respective uptake transporters. The assays were conducted according to the actual SOLVO uptake transporter assay protocols (PR-ASY-UPT-General Protocol for Uptake Transporter Inhibition Assays).
Cells were cultured at 37° C. in a humidified atmosphere containing 5% CO2 and were plated onto standard 96-well tissue culture plates.
Before the experiment, the medium was removed, and the cells were washed twice with 100 μL of pre-warmed (37° C.) assay buffer listed in Table 15. The cells were pre-incubated at 37° C. for 30 minutes in assay buffer containing the test article at appropriate concentrations (Table 16), appropriate solvents for solvent controls and the reference inhibitor for reference inhibitor wells. After the pre-incubation step solutions were removed. Uptake experiments were performed at 37° C. in 50 μL of assay buffer containing the probe substrate and the test article or solvent and controls.
After the experiment, cells were washed twice with 100 μL of appropriate cold buffer and lysed with 150 μL scintillation cocktail. Radiolabeled probe substrate transport was determined by liquid scintillation counting.
Uptake of the probe substrate in control cells provided background activity values for all data points.

[2] = Description: Twelve male Wistar Han rats were divided into 4 groups, n=3 per group.
Dose solutions were prepared freshly on the day of study prior to dosing.
The animals were weighed immediately prior to dosing and the dose volume was calculated individually based the obtained body weight and the nominal dose volume. […] The test articles were administered either orally by gavage, or intraperitoneally by injection. The nominal dose volume was 10 mL/kg for both compounds and both routes.
Cage side observation was performed before and after dosing as well as at each scheduled sample collection. The observation included appearance, posture, behavior, morbidity and mortality. Abnormal findings, if any, were recorded in the study notebook and communicated with study director, veterinarian, and Supernus if necessary.
Approximately 100 μL blood was collected at each scheduled time point from jugular veins. The actual sample collection time was within 1 min. of the nominal time for collections prior to or at 1 hour, and within 5% of the nominal time for collections post 1 hour.
The blood samples were placed in pre-labeled micro-centrifuge tubes containing K2EDTA as anticoagulant and kept on ice, and then were processed to plasma within 30 minutes of collection by centrifugation at 4° C., 3000 g for 5 minutes, and then stored at −70±10° C. until analysis by LC-MS/MS.
Plasma concentrations below the LLOQ prior to Tmax were set to zero, and those after Tmax were excluded from PK calculation. The nominal dose and the nominal sample collection time were used for the calculation. The values of plasma concentrations and PK parameters are reported to three significant figures. The average values of each treatment group are presented as mean±SD.

[3] = Metabolic stability in human intestinal homogenate; format: in vitro ADME
Description: The intestinal homogenate mixture solution was added to 96-well plates ([…]) in duplicate. […] Reaction was initiated by adding cofactor solution at 10 μL/well.
The intrinsic clearances were calculated using the following equations: […]

[4] = single IP Compound I-4 3.708 mg/kg, male Wistar Han rats, individual animals
[5] = single IP Compound I-4 3.708 mg/kg, male Wistar Han rats, mean
[6] = single PO Compound I-4 3.708 mg/kg, male Wistar Han rats, individual animals
[7] = single PO Compound I-4 3.708 mg/kg, male Wistar Han rats, mean
[8] = 1 μM, 0.5 mg/mL homogenate, 1 mM NADPH
[9] = 1 μM, NCF60 (60 min, no cofactors)

OC1(c2ccc(Cl)cc2)c2ccccc2C2=NCCN21 (centres unmarked) [Compound A, 5-(4-chlorophenyl)-2,3-dihydroimidazo[1,2-b]isoindol-5-ol, reference compound]
Relative transporter specific accumulation ([1]; 3.00 μM nominal): 99.68 ± 2.39 % of control
Transporter specific accumulation ([1]; 3.00 μM nominal): 2,392.67 ± 13.09 cpm
Relative transporter specific accumulation ([1]; 30.00 μM nominal): 88.39 ± 4.23 % of control
Transporter specific accumulation ([1]; 30.00 μM nominal): 2,121.67 ± 88.79 cpm
Maximum % inhibition ([1]; OAT1, HEK293 cells, tenofovir (5 μM), NIO: no inhibition observed): NIO
inhibition at 3 μM ([1]; human): 0%
inhibition at 30 μM ([1]; human): 12%
maximum inhibition of OAT1-mediated tenofovir accumulation ([1]; up to 100 μM (Compound A up to 30 μM)): did not inhibit; also recorded: not an in vitro inhibitor

COCCOC1(c2ccc(Cl)cc2)c2ccccc2C2=NCCN21 (centres unmarked) [Compound I-4]
plasma concentration of Compound I-4 ([2]; 0.500 h, single IP Compound I-4 3.708 mg/kg, male Wistar Han rats, individual animals): 90.3 ng/mL and 48.4 ng/mL and 115 ng/mL
plasma concentration of Compound I-4 ([2]; 0.500 h, single IP Compound I-4 3.708 mg/kg, male Wistar Han rats, mean): 84.6 ng/mL
plasma concentration of Compound I-4 ([2]; 0.500 h, single PO Compound I-4 3.708 mg/kg, male Wistar Han rats, mean): 9.01 ng/mL
plasma concentration of Compound I-4 ([2]; 2.00 h, single IP Compound I-4 3.708 mg/kg, male Wistar Han rats, individual animals): 96.7 ng/mL and 85.7 ng/mL and 119 ng/mL
plasma concentration of Compound I-4 ([2]; 2.00 h, single IP Compound I-4 3.708 mg/kg, male Wistar Han rats, mean): 100 ng/mL
plasma concentration of Compound I-4 ([2]; 2.00 h, single PO Compound I-4 3.708 mg/kg, male Wistar Han rats, mean): 6.06 ng/mL
plasma concentration of Compound I-4 ([2]; 4.00 h, single IP Compound I-4 3.708 mg/kg, male Wistar Han rats, individual animals): 54.6 ng/mL and 98.6 ng/mL and 61.1 ng/mL
plasma concentration of Compound I-4 ([2]; 4.00 h, single IP Compound I-4 3.708 mg/kg, male Wistar Han rats, mean): 71.4 ng/mL
plasma concentration of Compound I-4 ([2]; 4.00 h, single PO Compound I-4 3.708 mg/kg, male Wistar Han rats, mean): 2.75 ng/mL
plasma concentration of Compound I-4 ([2]; 8.00 h, single IP Compound I-4 3.708 mg/kg, male Wistar Han rats, mean): 31.7 ng/mL
plasma concentration of Compound I-4 ([2]; 8.00 h, single PO Compound I-4 3.708 mg/kg, male Wistar Han rats, individual animals): 1.40 ng/mL and 1.11 ng/mL and 1.53 ng/mL
plasma concentration of Compound I-4 ([2]; 8.00 h, single PO Compound I-4 3.708 mg/kg, male Wistar Han rats, mean): 1.35 ng/mL
plasma concentration of Compound I-4 ([2]; 24.0 h, single IP Compound I-4 3.708 mg/kg, male Wistar Han rats, individual animals): BQL
plasma concentration of Compound I-4 ([2]; 24.0 h, single PO Compound I-4 3.708 mg/kg, male Wistar Han rats, individual animals): BQL
plasma concentration of Compound I-4 ([2]; […] h, single IP Compound I-4 3.708 mg/kg, male Wistar Han rats, mean): 95.5 ng/mL
plasma concentration of Compound I-4 ([2]; […] h, single PO Compound I-4 3.708 mg/kg, male Wistar Han rats, mean): 6.98 ng/mL
Clinical observation (tolerability) ([2]; male Wistar Han rats, PO and IP, administered dosages): well tolerated
T1/2 of the administered compound ([2]; rat, in vivo, ip): 2.51 h
AUC0-inf of Compound I-4 [2, 4]: 567 ng·h/mL and 597 ng·h/mL
AUC0-last of Compound I-4 [2, 4]: 473 ng·h/mL and 599 ng·h/mL and 546 ng·h/mL
Cmax of Compound I-4 [2, 4]: 120 ng/mL and 98.6 ng/mL and 140 ng/mL
MRT0-inf of Compound I-4 [2, 4]: 4.58 h and 3.48 h
MRT0-last of Compound I-4 [2, 4]: 3.06 h and 4.10 h and 2.77 h
T1/2 of Compound I-4 [2, 4]: 2.90 h and 2.12 h
Tlast of Compound I-4 [2, 4]: 8.00 h
AUC0-inf of Compound I-4 [2, 5]: 582 ng·h/mL
AUC0-last of Compound I-4 [2, 5]: 539 ng·h/mL
Cmax of Compound I-4 [2, 5]: 120 ng/mL
MRT0-inf of Compound I-4 [2, 5]: 4.03 h
MRT0-last of Compound I-4 [2, 5]: 3.31 h
T1/2 of Compound I-4 [2, 5]: 2.51 h
Tlast of Compound I-4 [2, 5]: 8.00 h
Tmax of Compound I-4 [2, 5]: 1.50 h
AUC0-inf of Compound I-4 [2, 6]: 56.4 ng·h/mL
MRT0-inf of Compound I-4 [2, 6]: 2.61 h
MRT0-last of Compound I-4 [2, 6]: 3.86 h and 2.20 h and 4.46 h
T1/2 of Compound I-4 [2, 6]: 1.74 h
Tlast of Compound I-4 [2, 6]: 8.00 h
AUC0-last of Compound I-4 [2, 7]: 25.2 ng·h/mL
Cmax of Compound I-4 [2, 7]: 9.18 ng/mL
MRT0-last of Compound I-4 [2, 7]: 3.51 h
Tlast of Compound I-4 [2, 7]: 8.00 h
Tmax of Compound I-4 [2, 7]: 1.67 h
Compound A formed (Aa/Ai) ([3]; 0 min): 0.46
% Remaining ([3]; 1 μM, 0 min): 100%
Aa/Ai Mean (n = 2) ([3]; 1 μM, 0 min): 1.34
CLint(HIH) [3, 8]: 8.40 µL/min/mg
T1/2 [3, 8]: 2.75 h
% Remaining ([3]; 1 μM, 5 min): 97.6%
Aa/Ai Mean (n = 2) ([3]; 1 μM, 5 min): 1.31
% Remaining ([3]; 1 μM, 10 min): 87.3%
Aa/Ai Mean (n = 2) ([3]; 1 μM, 10 min): 1.17
% Remaining ([3]; 1 μM, 20 min): 88.0%
Aa/Ai Mean (n = 2) ([3]; 1 μM, 20 min): 1.18
% Remaining ([3]; 1 μM, 30 min): 87.4%
Aa/Ai Mean (n = 2) ([3]; 1 μM, 30 min): 1.17
% Remaining ([3]; 1 μM, 60 min): 75.8%
Aa/Ai Mean (n = 2) ([3]; 1 μM, 60 min): 1.01
% Remaining [3, 9]: 80.4%
Aa/Ai Mean (n = 2) [3, 9]: 1.08
Compound A formed (Aa/Ai) ([3]; 5 min): 0.54
Compound A formed (Aa/Ai) ([3]; 10 min): 0.50
Compound A formed (Aa/Ai) ([3]; 20 min): 0.51
Compound A formed (Aa/Ai) ([3]; 30 min): 0.58
Compound A formed (Aa/Ai) ([3]; 60 min): 0.50
Compound A formed (Aa/Ai) ([3]; NCF60 (60 min, no cofactors)): 0.69

From patent US20250108038A1 (priority 2023, published 2025)
